Results as given in patent US4500712A, “Ergoline derivatives” (Farmitalia Carlo Erba S.p.A., priority 1981, dated 1985).

How the values were obtained:
[1] = tested on: gastric secretion; assay: Gastric antisecretory activity in pylorus-ligated rats (Shay et al.); type: in vivo, Sprague-Dawley male rats; conditions: 4 h; rat, intraduodenal, at the time of ligature; read-out: Antisecretory activity (ED50, mg/kg i.d.)
Method: According to this method the tested compounds were injected intraduodenally at the time of ligature. Six Sprague-Dawley male rats (110-130 g) were used for each group. Twenty-four hours before the test, the rats were deprived of food but the water supply was maintained. On the day of the operation, the pylorus was ligated under light ether anaesthesia. Four hours after the ligature, the rats were sacrificed. The stomach secretion was collected and centrifuged at 3500 r.p.m. for 10 minutes and the volume, less sediment, was determined. The amount of free hydrochloric acid in the gastric juice was determined by titration against 0.01N sodium hydroxide, to an end point of pH 7.

[2] = tested on: restraint ulcers; assay: Inhibition of restraint ulcers in rats (Bonfils et al.); type: in vivo, Sprague-Dawley male rats; conditions: 1 h; rat, oral, one hour before immobilization; read-out: Anticular activity (ED50, mg/kg p.o.)
Method: The anti-ulcerogenic activity of the compounds of the present invention is shown, e.g., by the fact that they are active in the test of the inhibition of restraint ulcers in rats, according to the method of Bonfils et al., (Therapie, 1960, 15, 1096). According to this method the tested compounds were administered per os one hour before the immobilization.
Six Sprague-Dawley male rats (100-120 g), fasted 24 hours, were used for the experiment: a square flexible small-mesh wire netting was used for the immobilization and 4 hours after the immobilization the rats were sacrificed, their stomachs were removed and the lesions counted under a dissecting microscope.

[3] = tested on: heart rate (HR) in SH-rats; assay: Heart rate in spontaneously hypertensive rats (indirect tail cuff method)
Method: (§1) Indirect measurements of systolic blood pressure were carried out on groups of 4 spontaneously hypertensive rats (SHR, Kyoto), 8-10 weeks of age, supplied by Charles Rives, Italy.
(§2) The animals were maintained in an environment of 36° C. for 10-15 minutes to allow pulse pressure to be recorded and then systolic blood pressure and heart rate were measured by indirect tail cuff method using a W+W, BP recorder, model 8005.
(§3) The compounds were given orally, suspended in 5% arabic gum, once a day for 4 consecutive days and measurements were carried out before beginning the treatment and 1 and 5 hours after dosing in both the first and fourth day of treatment.
(§4) Control animals received the vehicle only (0.2 ml/100 g b.w.). As reference standards, hydralazine (1-5 mg/kg p.o.) and α-methyl-dopa (30-100 mg/kg p.o.) were also tested.
(§5) Drug-induced changes in systolic blood pressure and heart rate were calculated as differences from the pretreatment values.

[4] = tested on: systolic blood pressure (S.B.P.) in SH-rats; assay: Systolic blood pressure in spontaneously hypertensive rats (indirect tail cuff method); type: in vivo, spontaneously hypertensive rats (SHR, Kyoto)
Method: as §1, §2, §3, §4, §5

[5] = tested on: syndrome induced by oxotremorine; conditions: general statement; cited from earlier work
[6] = 1 mg/kg p.o., 1st day, 1 h post drug
[7] = 1 mg/kg p.o., 1st day, 5 h post drug
[8] = 1 mg/kg p.o., 4th day, 1 h post drug
[9] = 1 mg/kg p.o., 4th day, 5 h post drug
[10] = 5 mg/kg p.o., 1st day, 1 h post drug
[11] = 5 mg/kg p.o., 1st day, 5 h post drug
[12] = 5 mg/kg p.o., 4th day, 1 h post drug
[13] = 5 mg/kg p.o., 4th day, 5 h post drug

Which ED50 [1] does the source give for `CN1C[C@@H](CNC(=S)NC(=O)c2ccccc2)C[C@H]2c3cccc4[nH]cc(c34)C[C@H]21` [Ex 1, 6-Methyl-8α-(3-benzoyl-thioureidomethyl)-10β-ergoline] here?
The ED50 was 2.5 mg/kg.

What about the ED50 [2] of the same compound?
Its ED50 is 4.2 mg/kg.

With `C[C@](N)(Cc1ccc(O)c(O)c1)C(=O)O` [α-methyl-DOPA, α-methyl-dopa] as the compound, how does the “effects on heart rate (in words)” value ([3]; rat, in vivo) read?
The value was “increase HR”.

What about the “Changes in S.B.P” value ([4]; 30 mg/kg p.o., 1st day, 1 h post drug) of the same compound?
Its value is -10 ΔmmHg.

And the “Changes in S.B.P” value ([4]; 30 mg/kg p.o., 1st day, 5 h post drug)?
Its value is -20 ΔmmHg.

What about the “Changes in S.B.P” value ([4]; 30 mg/kg p.o., 4th day, 1 h post drug) of the same compound?
The value was -10 ΔmmHg.

And the “Changes in S.B.P” value ([4]; 30 mg/kg p.o., 4th day, 5 h post drug)?
The value was 0 ΔmmHg.

What about the “Changes in S.B.P” value ([4]; 100 mg/kg p.o., 1st day, 1 h post drug) of the same compound?
Its value is -10 ΔmmHg.

What about the “Changes in S.B.P” value ([4]; 100 mg/kg p.o., 1st day, 5 h post drug) of the same compound?
The value was -25 ΔmmHg.

What about the “Changes in S.B.P” value ([4]; 100 mg/kg p.o., 4th day, 1 h post drug) of the same compound?
The value was -20 ΔmmHg.

And the “Changes in S.B.P” value ([4]; 100 mg/kg p.o., 4th day, 5 h post drug)?
The value was -25 ΔmmHg.

For `CN1C[C@H](CNC(=S)NC(=O)c2ccccc2)C[C@@H]2c3cccc4[nH]cc(c34)C[C@H]21` [Ex 2, 6-Methyl-8β-(3-benzoyl-thioureidomethyl)-ergoline], which ED50 [1] is on record?
Its ED50 is 1.4 mg/kg.

And the ED50 [2]?
The ED50 was 0.7 mg/kg.

What does the source list for `NNc1nncc2ccccc12` [Hydralazine, hydralazine]?
Changes in HR [3, 6]: +30 beats/min; Changes in HR [3, 7]: +35 beats/min; Changes in HR [3, 8]: +25 beats/min; Changes in HR [3, 9]: +15 beats/min; Changes in HR [3, 10]: +40 beats/min; Changes in HR [3, 11]: +45 beats/min; Changes in HR [3, 12]: +18 beats/min; Changes in HR [3, 13]: +15 beats/min; effects on heart rate (in words) ([3]; Table 3, SH-rats): increase HR; Changes in S.B.P [4, 6]: -5 ΔmmHg; Changes in S.B.P [4, 7]: -15 ΔmmHg; Changes in S.B.P [4, 8]: -5 ΔmmHg; Changes in S.B.P [4, 9]: 0 ΔmmHg; Changes in S.B.P [4, 10]: -40 ΔmmHg; Changes in S.B.P [4, 11]: -20 ΔmmHg; Changes in S.B.P [4, 12]: -20 ΔmmHg; Changes in S.B.P [4, 13]: -7 ΔmmHg

Which results are given for `CC(=O)NC(=O)NC[C@H]1C[C@@H]2c3cccc4[nH]cc(c34)C[C@H]2N(C)C1` [Ex 26, 6-Methyl-8α-(3-acetyl-ureidomethyl)-ergoline]?
Changes in S.B.P [4, 10]: -28 ΔmmHg; Changes in S.B.P [4, 11]: -60 ΔmmHg; Changes in S.B.P [4, 12]: -45 ΔmmHg; Changes in S.B.P [4, 13]: -36 ΔmmHg

Which ED50 [1] does the source give for `CN1C[C@@H](CNC(=O)NC(=O)c2ccccc2)C[C@@H]2c3cccc4[nH]cc(c34)C[C@H]21` [Ex 10, 6-Methyl-8α-(3-benzoyl-ureidomethyl)-ergoline] here?
The ED50 was 1 mg/kg.

What about the ED50 [2] of the same compound?
The ED50 was 7 mg/kg.

With `CN1[C@@H]2CC[C@H]1C[C@@H](OC(=O)C(CO)c1ccccc1)C2` (some centres unmarked) [atropine] as the compound, how does the “anti-cholinergic activity of known agent” value [5] read?
Its value is “remarkable but undesired anti-cholinergic activity”.

Which results are given for `CC(=O)NC(=O)NC[C@@H]1C[C@@H]2c3cccc4[nH]cc(c34)C[C@H]2N(C)C1` [Ex 9, 6-Methyl-8β-(3-acetyl-ureidomethyl)-ergoline]?
Changes in S.B.P [4, 10]: -25 ΔmmHg; Changes in S.B.P [4, 11]: -17 ΔmmHg; Changes in S.B.P [4, 12]: -57 ΔmmHg; Changes in S.B.P [4, 13]: -56 ΔmmHg
